Values of other authors as cited in patent publication US20030167999A1, “Crystal” (priority 2000, published 2003).

Columns and labels:
[1] = molecular target: hAR M7421 (Homo sapiens, UniProt P10275, M743I)
[2] = molecular target: hAR mutant L707R (Homo sapiens, UniProt P10275, L708R); conditions: Scatchard plot analysis
[3] = molecular target: hAR M742V (Homo sapiens, UniProt P10275, M743V)
[4] = molecular target: hAR mutation F764S (Homo sapiens, UniProt P10275, F765S)
[5] = molecular target: wild-type hAR (Homo sapiens, UniProt P10275)
Chain of wild-type hAR (P10275 whole entry): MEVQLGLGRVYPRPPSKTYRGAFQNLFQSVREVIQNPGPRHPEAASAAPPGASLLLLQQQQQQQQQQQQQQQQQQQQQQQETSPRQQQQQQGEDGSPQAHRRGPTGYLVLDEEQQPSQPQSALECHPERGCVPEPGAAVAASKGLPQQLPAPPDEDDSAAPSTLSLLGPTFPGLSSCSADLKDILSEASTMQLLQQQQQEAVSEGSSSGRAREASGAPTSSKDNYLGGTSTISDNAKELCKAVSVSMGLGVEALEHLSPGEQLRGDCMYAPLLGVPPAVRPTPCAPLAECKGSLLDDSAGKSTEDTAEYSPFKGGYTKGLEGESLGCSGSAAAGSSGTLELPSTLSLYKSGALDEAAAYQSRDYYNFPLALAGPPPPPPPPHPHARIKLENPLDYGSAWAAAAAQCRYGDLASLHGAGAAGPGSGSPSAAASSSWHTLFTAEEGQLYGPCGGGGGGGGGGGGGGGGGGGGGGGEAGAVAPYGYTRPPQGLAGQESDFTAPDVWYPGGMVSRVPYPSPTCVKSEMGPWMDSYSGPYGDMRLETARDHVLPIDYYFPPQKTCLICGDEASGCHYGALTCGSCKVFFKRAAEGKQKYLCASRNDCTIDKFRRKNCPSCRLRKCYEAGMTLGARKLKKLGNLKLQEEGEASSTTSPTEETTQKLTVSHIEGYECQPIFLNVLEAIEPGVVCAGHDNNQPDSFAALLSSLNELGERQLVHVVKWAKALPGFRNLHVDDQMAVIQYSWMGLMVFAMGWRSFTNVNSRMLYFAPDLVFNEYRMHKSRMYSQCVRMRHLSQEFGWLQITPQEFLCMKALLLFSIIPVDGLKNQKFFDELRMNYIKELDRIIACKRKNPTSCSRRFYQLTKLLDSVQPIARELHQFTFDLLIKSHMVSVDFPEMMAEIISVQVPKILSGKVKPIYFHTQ

[6] = molecular target: T1, wild-type hPR (Homo sapiens, UniProt P06401); conditions: with respect to progesterone (RBA=100)
T1 sequence (P06401 1-933): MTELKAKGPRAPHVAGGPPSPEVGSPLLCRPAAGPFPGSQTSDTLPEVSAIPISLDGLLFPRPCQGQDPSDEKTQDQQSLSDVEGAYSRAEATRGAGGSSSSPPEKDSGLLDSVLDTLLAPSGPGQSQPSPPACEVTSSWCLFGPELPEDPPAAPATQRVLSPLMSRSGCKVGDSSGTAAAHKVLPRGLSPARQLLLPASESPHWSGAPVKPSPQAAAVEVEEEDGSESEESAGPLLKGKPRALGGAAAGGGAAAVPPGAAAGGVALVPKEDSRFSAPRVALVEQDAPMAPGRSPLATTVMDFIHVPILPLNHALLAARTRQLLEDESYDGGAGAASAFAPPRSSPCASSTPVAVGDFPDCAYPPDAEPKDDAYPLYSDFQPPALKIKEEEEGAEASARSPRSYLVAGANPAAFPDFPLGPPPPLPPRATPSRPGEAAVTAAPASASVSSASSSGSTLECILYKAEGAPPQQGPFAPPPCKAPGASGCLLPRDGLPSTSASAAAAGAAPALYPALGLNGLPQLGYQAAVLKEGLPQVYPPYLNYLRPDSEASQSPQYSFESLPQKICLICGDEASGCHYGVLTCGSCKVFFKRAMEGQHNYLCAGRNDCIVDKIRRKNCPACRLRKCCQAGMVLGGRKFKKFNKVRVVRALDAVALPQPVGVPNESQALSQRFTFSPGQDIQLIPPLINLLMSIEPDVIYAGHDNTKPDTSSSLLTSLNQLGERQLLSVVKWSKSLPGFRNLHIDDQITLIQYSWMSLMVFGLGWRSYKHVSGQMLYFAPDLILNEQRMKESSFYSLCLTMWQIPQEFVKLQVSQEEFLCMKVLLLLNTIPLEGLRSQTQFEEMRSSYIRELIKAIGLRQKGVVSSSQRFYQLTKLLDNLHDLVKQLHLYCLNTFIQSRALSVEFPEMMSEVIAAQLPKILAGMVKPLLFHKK

[7] = molecular target: AR receptor of LNCaP (T877A) (Homo sapiens, UniProt P10275, T878A); conditions: single point mutation T877A
Chain of AR receptor of LNCaP (T877A) (P10275 whole entry T878A, the tested form may be a part): as the sequence (P10275 whole entry) above, with T878A counted along it

[8] = molecular target: hAR LBD M787V (Homo sapiens, UniProt P10275, M788V)
Chain of hAR LBD M787V (P10275 whole entry M788V, the tested form may be a part): as the sequence (P10275 whole entry) above, with M788V counted along it

Chain of hAR M7421 (P10275 whole entry M743I): as the sequence (P10275 whole entry) above, with M743I counted along it
Chain of hAR mutant L707R (P10275 whole entry L708R): as the sequence (P10275 whole entry) above, with L708R counted along it
Chain of hAR mutation F764S (P10275 whole entry F765S): as the sequence (P10275 whole entry) above, with F765S counted along it
Chain of hAR M742V (P10275 whole entry M743V): as the sequence (P10275 whole entry) above, with M743V counted along it

C[C@]1(O)CC[C@H]2[C@@H]3CCC4=CC(=O)CCC4=C3C=C[C@@]21C [R1881, metribolone]
effect of mutation on binding affinity [1]: dramatically reduce | binding affinity [2]: undetectable | effect of mutation on binding affinity [3]: dramatically reduce | ligand dissociation [4]: rapid ligand dissociation | relative binding affinity (RBA) [5]: 290 | relative binding affinity (RBA) [6]: 190 | R1881 binding versus wild type [7]: identical | binding [8]: undetectable or strongly reduced
